Assay results as given in patent US10058516B2, “Design, synthesis and methods of use of acyclic fleximer nucleoside analogues having anti-coronavirus activity” (priority 2015, dated 2018).
Like-named read-outs stand apart in the source and are kept apart here.

Assays:
[1] = test system: coronavirus; conditions: coronavirus replication in vitro; cited from earlier work
[2] = test system: other viruses; conditions: cited from earlier work
[3] = test system: SARS-CoV or MERS-CoV; conditions: cited from earlier work
[4] = test system: VeroE6 cells; conditions: African green monkey
[5] = test system: MERS-CoV (strain EMC/2012); assay: microbe, parasite or virus in culture; assay type: cell-based; conditions: Middle East respiratory syndrome-related coronavirus, Vero, read-out: EC50: Effective concentration showing 50% inhibition of virus-induced CPE
[6] = test system: HCoV-NL63; assay: NL63-CoV antiviral assay (CPE scored microscopically)
[7] = test system: MERS-CoV (strain EMC/2012); assay: microbe, parasite or virus in culture; assay type: cell-based; conditions: for EC50: Middle East respiratory syndrome-related coronavirus, Huh-7, read-out: EC50: Effective concentration showing 50% inhibition of virus-induced CPE
[8] = test system: HIV-1 and HSV-2; conditions: when McGuigan's ProTide technology was employed, cited from earlier work
[9] = test system: SARS-CoV (strain Frankfurt-1); assay: microbe, parasite or virus in culture; conditions: Severe acute respiratory syndrome coronavirus
[10] = Cytotoxicity in Vero118 cells (NL63 assay, cell viability scored microscopically); conditions: African green monkey, Vero118 cells, CC50: Cytotoxic concentration showing 50% inhibition of cell survival, Vero118 (HCoV-NL63 assay)
[11] = test system: Huh7 cells; conditions: human
[12] = test system: SARS-CoV (strain Frankfurt-1)
[13] = test system: Vero cells; conditions: African green monkey
[14] = test system: Vero118 cells; assay: Cytotoxicity in Vero118 cells (NL63 assay, cell viability scored microscopically); conditions: read-out: CC50: Cytotoxic concentration showing 50% inhibition of cell survival; Vero118 (HCoV-NL63 assay)
[15] = in vitro; conditions: human
[16] = Human coronavirus NL63, read-out: EC50: Effective concentration showing 50% inhibition of virus-induced CPE, HCoV-NL63 in Vero118
[17] = Vero C1008, read-out: EC50: Effective concentration showing 50% inhibition of virus-induced CPE

SMILES	activity against SARS-CoV or MERS-CoV in vitro [3]	EC50 [5]	EC50 [6, 16]	block the replication of MERS-CoV [7]	EC50 [7]	EC50 [9, 17]	CC50 at 5 days [10]	further results
NC(=O)c1ncn([C@@H]2O[C@H](CO)[C@@H](O)[C@H]2O)n1 [Ribavirin, ribavirin]								inhibitory concentration [1]: 500 to 5000 µg/mL; inhibitory concentration needed to inhibit other viruses [2]: 50 to 100 µg/mL
Nc1nc(O)c2ncn(COC(CO)CO)c2n1 [ganciclovir]	none of these well-known antiviral drugs exhibited any activity							
Nc1nc2c(ncn2COCCO)c(=O)[nH]1 [Acyclovir, acyclovir, reference compound]	none of these well-known antiviral drugs exhibited any activity	> 1000 µM	> 100 µM	had no effect	> 1000 µM	> 1000 µM	> 100 µM	CC50 [4]: > 1000 µM; suppression of replication of both HIV-1 and HSV-2 ([8]; CD4+ T cells): 3 to 12 µmol/L; suppression of replication of both HIV-1 and HSV-2 ([8]; lymphoid and cervicovaginal human tissues): submicromolar range; CC50 [11]: > 1000 µM; block the replication of SARS-CoV [12]: had no effect; CC50 [13]: > 1000 µM
COc1nc(N)ncc1-c1cn(COCCO)cn1 [Compound 2, 2-((4-(2-amino-4-methoxypyrimidin-5-yl)-1H-imidazol-1-yl)methoxy)ethan-1-ol]		10.1 ± 1.2 µM	< 10 µM	can block the replication of MERS-CoV	13.5 µM	28.1 ± 0.2 µM	> 100 µM	selective antiviral activity (CC50>10×) ([6]; HCoV-NL63 in Vero118, CC50 relative to EC50): > 10 ×; EC50 ([6]; read-out: EC50: Effective concentration showing 50% inhibition of virus-induced CPE, HCoV-NL63 in Vero118): 8.8 ± 1.5 µM; CC50 [14]: 120 ± 37 µM; CC50 [15]: 54 ± 1.7 µM
Cc1cn([C@H]2C[C@H](N=[N+]=[N-])[C@@H](CO)O2)c(=O)[nH]c1=O [zidovudine]	none of these well-known antiviral drugs exhibited any activity							
Nc1ncc(-c2cn(COCCO)cn2)c(O)n1 [Compound 3, 2-amino-5-(1-((2-hydroxyethoxy)methyl)-1H-imidazol-4-yl)pyrimidin-4(3H)-one]			> 200 µM				> 200 µM	
OCCOCn1cnc(-c2cnc(O)nc2O)c1 [Compound 1, 5-(1-((2-hydroxyethoxy)methyl)-1H-imidazol-4-yl)pyrimidine-2,4-diol]			92 ± 68 µM				> 200 µM	
COc1nc(N)ncc1-c1cn(COCCOC(C)=O)cn1 [Compound 19, 2-((4-(2-amino-4-methoxypyrimidin-5-yl)-1H-imidazol-1-yl)methoxy)ethyl acetate]		3.4 ± 0.3 µM		can block the replication	5.3 ± 0.7 µM	11.9 ± 0.2 µM		EC50 ([9]; Vero C1008): < 12 µM; CC50 [15]: 23.4 ± 0.4 µM; CC50 as multiple of the EC50 [12]: ~3 times the EC50; block the replication of SARS-CoV [12]: can block the replication
